Laboratory results taken from patent publication US8673908B2, “Kynurenine production inhibitor” (Kyowa Hakko Kirin Co., Ltd., priority 2008, dated 2014).

Tested on: kynurenine production in IFN-γ-treated KATO-III cells
Experiment: Inhibitory activity on kynurenine production (Test Example 1)
Type: cell-based
Conditions: Homo sapiens, IFN-γ treatment, culture for 96 hours, read-out: IC50 value, inhibition of kynurenine production
Procedure, shortened: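 KATO-III human gastric cancer cells (2,000/well, RPMI 1640 + 10% FBS) were cultured with compound and IFN-γ (31.25 ng/mL in the cell suspension), DMSO ≤0.1%, for 96 h at 37 °C, 5% CO2. Kynurenine was read at A480 after TCA at 65 °C and p-dimethylaminobenzaldehyde. Inhibition used IFN-γ-treated and untreated DMSO wells as references.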

Compound | IC50 [µM]
O=S(=O)(Nc1nc2ccccc2nc1OC(c1cn(CC2CC2)cn1)C(F)(F)F)c1ccccc1Cl (centres unmarked) [Compound 112, 2-chloro-N-{3-[2,2,2-trifluoro-1-(1-cyclopropylmethyl-1H-imidazol-4-yl)ethoxy]quinoxalin-2-yl}benzenesulfonamide] | < 1
O=S(=O)(Nc1nc2ccccc2nc1OC(c1cncs1)C(F)(F)F)c1ccccc1Cl (centres unmarked) [Compound 113, 2-chloro-N-{3-[2,2,2-trifluoro-1-(thiazol-5-yl)ethoxy]-quinoxalin-2-yl}benzenesulfonamide] | < 1
Cc1ncc(C(Oc2nc3ccccc3nc2NS(=O)(=O)c2ccccc2Cl)C(F)(F)F)n1C (centres unmarked) [Compound 115, 2-chloro-N-{3-[2,2,2-trifluoro-1-(1,2-dimethyl-1H-imidazol-5-yl)ethoxy]quinoxalin-2-yl}benzenesulfonamide] | < 1
O=S(=O)(Nc1nc2ccccc2nc1OC(C1CCOCC1)C(F)(F)F)c1ccccc1Cl (centres unmarked) [Compound 116, 2-chloro-N-{3-[2,2,2-trifluoro-1-(tetrahydro-2H-pyran-4-yl)ethoxy]quinoxalin-2-yl}benzenesulfonamide] | < 1
O=S(=O)(Nc1nc2ccccc2nc1OC(C1CC1)C(F)(F)F)c1ccccc1Cl (centres unmarked) [Compound 117, 2-chloro-N-[3-(1-cyclopropyl-2,2,2-trifluoroethoxy)-quinoxalin-2-yl]benzenesulfonamide] | < 1
O=S(=O)(Nc1nc2ccccc2nc1OC(C1CCCCC1)C(F)(F)F)c1ccccc1Cl (centres unmarked) [Compound 118, 2-chloro-N-[3-(1-cyclohexyl-2,2,2-trifluoroethoxy)-quinoxalin-2-yl]benzenesulfonamide] | < 1
Cc1noc(C)c1S(=O)(=O)Nc1nc2ccccc2nc1OC(C1CCOCC1)C(F)(F)F (centres unmarked) [Compound 119, 3,5-dimethyl-N-{3-[2,2,2-trifluoro-1-(tetrahydro-2H-pyran-4-yl)ethoxy]quinoxalin-2-yl}isoxazole-4-sulfonamide] | < 1
Cc1nn(C)c(Cl)c1S(=O)(=O)Nc1nc2ccccc2nc1OC(C1CCOCC1)C(F)(F)F (centres unmarked) [Compound 120, 5-chloro-1,3-dimethyl-N-{3-[2,2,2-trifluoro-1-(tetrahydro-2H-pyran-4-yl)ethoxy]quinoxalin-2-yl}-1H-pyrazole-4-sulfonamide] | < 1
CC1(C(Oc2nc3ccccc3nc2NS(=O)(=O)c2ccccc2Cl)C(F)(F)F)CCOCC1 (centres unmarked) [Compound 121, 2-chloro-N-{3-[2,2,2-trifluoro-1-(4-methyltetrahydro-2H-pyran-4-yl]ethoxy}quinoxalin-2-yl)benzenesulfonamide] | < 1
O=S(=O)(Nc1nc2ccccc2nc1OC(c1cnc(Br)s1)C(F)(F)F)c1ccccc1Cl (centres unmarked) [Compound 126, 2-chloro-N-{3-[2,2,2-trifluoro-1-(2-bromothiazol-5-yl)-ethoxy]quinoxalin-2-yl}benzenesulfonamide] | < 1
Cn1c(C(Oc2nc3ccccc3nc2NS(=O)(=O)c2ccccc2Cl)C(F)(F)F)cc2ccccc21 (centres unmarked) [Compound 127, 2-chloro-N-{3-[2,2,2-trifluoro-1-(1-methyl-1H-indol-2-yl)-ethoxy]quinoxalin-2-yl}benzenesulfonamide] | < 1
Cc1noc(C)c1S(=O)(=O)Nc1nc2ccccc2nc1OC(c1cc2ccccc2n1C)C(F)(F)F (centres unmarked) [Compound 128, 3,5-dimethyl-N-{3-[2,2,2-trifluoro-1-(1-methyl-1H-indol-2-yl)ethoxy]quinoxalin-2-yl}isoxazole-4-sulfonamide] | < 1
Cc1nn(C)c(Cl)c1S(=O)(=O)Nc1nc2ccccc2nc1OC(c1cc2ccccc2n1C)C(F)(F)F (centres unmarked) [Compound 129, 5-chloro-1,3-dimethyl-N-{3-[2,2,2-trifluoro-1-(1-methyl-1H-indol-2-yl)ethoxy]quinoxalin-2-yl}-1H-pyrazole-4-sulfonamide] | < 1
Cc1nn(C)c(Cl)c1S(=O)(=O)Nc1nc2ccccc2nc1OC(C1CCSCC1)C(F)(F)F (centres unmarked) [Compound 130, 5-chloro-1,3-dimethyl-N-{3-[2,2,2-trifluoro-1-(tetrahydro-2H-thiopyran-4-yl)ethoxy]quinoxalin-2-yl}-1H-pyrazole-4-sulfonamide] | < 1
Cc1noc(C)c1S(=O)(=O)Nc1nc2ccccc2nc1OC(C1CCSCC1)C(F)(F)F (centres unmarked) [Compound 131, 3,5-dimethyl-N-{3-[2,2,2-trifluoro-1-(tetrahydro-2H-thiopyran-4-yl)ethoxy]quinoxalin-2-yl}isoxazole-4-sulfonamide] | < 1
O=S(=O)(Nc1nc2ccccc2nc1OC(c1cnc(-c2ccccc2)s1)C(F)(F)F)c1ccccc1Cl (centres unmarked) [Compound 134, 2-chloro-N-{3-[2,2,2-trifluoro-1-(2-phenylthiazol-5-yl)-ethoxy]quinoxalin-2-yl}benzenesulfonamide] | < 1
CCCS(=O)(=O)Nc1nc2ccccc2nc1OC(c1cc2ccccc2n1C)C(F)(F)F (centres unmarked) [Compound 135, N-{3-[2,2,2-trifluoro-1-(1-methyl-1H-indol-2-yl)ethoxy]-quinoxalin-2-yl}propane-1-sulfonamide] | < 1
O=S(=O)(Nc1nc2ccccc2nc1OC(C1CCOC1)C(F)(F)F)c1ccccc1Cl (centres unmarked) [Compound 136, 2-chloro-N-{3-[2,2,2-trifluoro-1-(tetrahydrofuran-3-yl)-ethoxy]quinoxalin-2-yl}benzenesulfonamide] | < 1

Compound | IC50 [µM]
O=S(=O)(Nc1nc2ccccc2nc1OC(c1cccnc1)C(F)(F)F)c1ccccc1 (centres unmarked) [Compound 137, N-{3-[2,2,2-trifluoro-1-(pyridin-3-yl)ethoxy]quinoxalin-2-yl}benzenesulfonamide] | < 1
O=S(=O)(Nc1nc2ccccc2nc1OC(c1cccnc1)C(F)(F)F)c1ccccc1Cl (centres unmarked) [Compound 138, 2-Chloro-N-{3-[2,2,2-trifluoro-1-(pyridin-3-yl)ethoxy]-quinoxalin-2-yl}benzenesulfonamide] | < 1
O=S(=O)(Nc1nc2ccccc2nc1OC(c1cccnc1)C(F)(F)F)c1cccnc1 (centres unmarked) [Compound 139, N-{3-[2,2,2-trifluoro-1-(pyridin-3-yl)ethoxy]quinoxalin-2-yl}pyridine-3-sulfonamide] | < 1
O=S(=O)(Nc1nc2ccccc2nc1OC(c1cccnc1)C(F)(F)F)c1cccs1 (centres unmarked) [Compound 140, N-{3-[2,2,2-trifluoro-1-(pyridin-3-yl)ethoxy]quinoxalin-2-yl}thiophene-2-sulfonamide] | < 1
Cc1nn(C)c(Cl)c1S(=O)(=O)Nc1nc2ccccc2nc1OC(c1cccnc1)C(F)(F)F (centres unmarked) [Compound 141, 5-chloro-1,3-dimethyl-N-{3-[2,2,2-trifluoro-1-(pyridin-3-yl)ethoxy]quinoxalin-2-yl}-1H-pyrazole-4-sulfonamide] | < 1
Cc1cc(S(=O)(=O)Nc2nc3ccccc3nc2OC(c2cccnc2)C(F)(F)F)c(C(F)(F)F)o1 (centres unmarked) [Compound 143, 5-methyl-N-{3-[2,2,2-trifluoro-1-(pyridin-3-yl)ethoxy]-quinoxalin-2-yl}-2-(trifluoromethyl)furan-3-sulfonamide] | < 1
O=S(=O)(Nc1nc2ccccc2nc1OC(c1cccnc1)C(F)(F)F)c1ccccc1F (centres unmarked) [Compound 144, 2-fluoro-N-{3-[2,2,2-trifluoro-1-(pyridin-3-yl)ethoxy]-quinoxalin-2-yl}benzenesulfonamide] | < 1
O=S(=O)(Nc1nc2ccccc2nc1OC(c1cccnc1)C(F)(F)F)c1ccc(Cl)s1 (centres unmarked) [Compound 146, 5-chloro-N-{3-[2,2,2-trifluoro-1-(pyridin-3-yl)ethoxy]-quinoxalin-2-yl}thiophene-2-sulfonamide] | < 1
O=S(=O)(Cc1ccccc1)Nc1nc2ccccc2nc1OC(c1cccnc1)C(F)(F)F (centres unmarked) [Compound 147, 1-phenyl-N-{3-[2,2,2-trifluoro-1-(pyridin-3-yl)ethoxy]-quinoxalin-2-yl}methanesulfonamide] | < 1
CS(=O)(=O)Nc1nc2ccccc2nc1OC(c1cccnc1)C(F)(F)F (centres unmarked) [Compound 148, N-{3-[2,2,2-trifluoro-1-(pyridin-3-yl)ethoxy]quinoxalin-2-yl}methanesulfonamide] | 1 to 10
O=S(=O)(Nc1nc2ccccc2nc1OC(c1cccnc1)C(F)(F)F)C1CC1 (centres unmarked) [Compound 150, N-{3-[2,2,2-trifluoro-1-(pyridin-3-yl)ethoxy]quinoxalin-2-yl}cyclopropanesulfonamide] | < 1
O=S(=O)(Nc1nc2ccccc2nc1OC(c1cccnc1)C(F)(F)F)c1ccccc1OC(F)(F)F (centres unmarked) [Compound 151, N-{3-[2,2,2-trifluoro-1-(pyridin-3-yl)ethoxy]quinoxalin-2-yl}-2-(trifluoromethoxy)benzenesulfonamide] | < 1
O=S(=O)(Nc1nc2ccccc2nc1OC(c1cccnc1)C(F)(F)F)c1cc(Cl)cc(Cl)c1 (centres unmarked) [Compound 152, 3,5-dichloro-N-{3-[2,2,2-trifluoro-1-(pyridin-3-yl)ethoxy]-quinoxalin-2-yl}benzenesulfonamide] | < 1
O=S(=O)(Nc1nc2ccccc2nc1OC(c1cccnc1)C(F)(F)F)c1cc(F)cc(F)c1 (centres unmarked) [Compound 153, 3,5-difluoro-N-{3-[2,2,2-trifluoro-1-(pyridin-3-yl)ethoxy]-quinoxalin-2-yl}benzenesulfonamide] | < 1
Cc1noc(C)c1S(=O)(=O)Nc1nc2ccccc2nc1OC(c1cccnc1)C(F)(F)F (centres unmarked) [Compound 155, 3,5-dimethyl-N-{3-[2,2,2-trifluoro-1-(pyridin-3-yl)ethoxy]-quinoxalin-2-yl}isoxazole-4-sulfonamide] | < 1
Cc1ccccc1S(=O)(=O)Nc1nc2ccccc2nc1OC(c1cccnc1)C(F)(F)F (centres unmarked) [Compound 156, 2-methyl-N-{3-[2,2,2-trifluoro-1-(pyridin-3-yl)ethoxy]-quinoxalin-2-yl}benzenesulfonamide] | < 1
Nc1ccccc1S(=O)(=O)Nc1nc2ccccc2nc1OC(c1cccnc1)C(F)(F)F (centres unmarked) [Compound 157, 2-amino-N-{3-[2,2,2-trifluoro-1-(pyridin-3-yl)ethoxy]-quinoxalin-2-yl}benzenesulfonamide] | < 1
